Target: T1, EGFR T790M/L858R/C797S (Homo sapiens, UniProt P00533, C797S/L858R/T790M)
T1 construct: expressed in transfected cells; host or cells: BaF3 (murine pro-B) cells stably transduced with pCDH lentiviral vector, PGK promoter
Assay: EGFR Degradation Assay (Cellular), FRET quantification of total EGFR
Assay type: cell-based
Settings: BaF3 EGFR mutant cell line (EGFR T790M/L858R/C797S); 4-hour incubation; total EGFR FRET kit; top concentration 1 μM, 11 points; read-out: IC50 [nM] mutant EGFR degradation
Protocol: EGFR Degradation Assay (Cellular)
The BaF3 parental line was purchased from DSMZ and grown in RPMI media supplemented with 10% FBS and 10 ng/mL interleukin 3 (IL-3) (Thermo Fisher Scientific). EGFR mutants ([…]) were cloned into the pCDH lentiviral vector (SystemBio) under the control of a PGK promoter and confirmed by DNA sequencing. The resulting gene expression vector for each mutant was mixed with packaging vectors and cotransfected into 2×10E6 HEK293T cells (ATCC) in 10 mL of DMEM media to generate lentiviral particles according to the manufacturers protocol (Origene).
Three days post-transfection, the viral supernatant was harvested and filtered. In one well of a 12-well plate, 0.5 mL of viral supernatant was added to 2E6 Ba/F3 cells contained in 1.5 mL of RPMI media including 10% FBS, 10 ng/mL IL-3, and 5 μg/mL polybrene (Invitrogen). The plate was centrifuged at 2,000 rpm for 1 hour at room temperature and infected cells were kept in a tissue culture incubator overnight at 37° C. The cells were washed once in fresh BaF3 media and reseeded at 0.5E6 cells/well of a 12-well plate in media supplemented with 0.5 μg/mL puromycin. The cells were maintained in this media for 3 weeks. IL-3-independent, EGFR mutant transformed cells were routinely maintained in RPMI medium supplemented with 10% FBS.
RPMI 1640 no-phenol red medium and fetal bovine serum (FBS) were purchased from Gibco (Grand Island, N.Y., USA). EGFR total kit and EGFR phospho-Y1068 kit were purchased from Cisbio (Bedford, Mass., USA). BaF3 EGFR mutant cell lines (EGFR T790M/L858R/C797S) cell line was generated in house, according to the protocol reported above. Cell culture flasks and 384-well microplates were acquired from VWR (Radnor, Pa., USA).
EGFR degradation was determined based on quantification of FRET signal using EGFR total kit. The FRET signal detected correlates with total EGFR protein level in cells. Briefly, test compounds were added to the 384-well plate from a top concentration of 1 μM with 11 points, half log titration in quadruplicates. Then, BaF3 EGFR mutant cell lines (EGFR T790M/L858R/C797S) were added into 384-well plates at a cell density of 10000 cells per well. The plates were kept at 37° C. with 5% CO2 for 4 hours. After 4-hour incubation, 4× lysis buffer was added to the cells, and then microplate was agitated on plate shaker at 500 rpm for 30 minutes at room temperature. Next, total EGFR antibody solution was added to the cells and the cells were incubated for another 4 hours at room temperature. Finally, FRET signal was acquired on EnVision™ Multilabel Reader (PerkinElmer, Santa Clara, Calif., USA). The cells treated in the absence of the test compound were the negative control and lysis buffer with antibody solution only were the positive control.

T1 sequence (P00533 25-1210 T790M/C797S/L858R): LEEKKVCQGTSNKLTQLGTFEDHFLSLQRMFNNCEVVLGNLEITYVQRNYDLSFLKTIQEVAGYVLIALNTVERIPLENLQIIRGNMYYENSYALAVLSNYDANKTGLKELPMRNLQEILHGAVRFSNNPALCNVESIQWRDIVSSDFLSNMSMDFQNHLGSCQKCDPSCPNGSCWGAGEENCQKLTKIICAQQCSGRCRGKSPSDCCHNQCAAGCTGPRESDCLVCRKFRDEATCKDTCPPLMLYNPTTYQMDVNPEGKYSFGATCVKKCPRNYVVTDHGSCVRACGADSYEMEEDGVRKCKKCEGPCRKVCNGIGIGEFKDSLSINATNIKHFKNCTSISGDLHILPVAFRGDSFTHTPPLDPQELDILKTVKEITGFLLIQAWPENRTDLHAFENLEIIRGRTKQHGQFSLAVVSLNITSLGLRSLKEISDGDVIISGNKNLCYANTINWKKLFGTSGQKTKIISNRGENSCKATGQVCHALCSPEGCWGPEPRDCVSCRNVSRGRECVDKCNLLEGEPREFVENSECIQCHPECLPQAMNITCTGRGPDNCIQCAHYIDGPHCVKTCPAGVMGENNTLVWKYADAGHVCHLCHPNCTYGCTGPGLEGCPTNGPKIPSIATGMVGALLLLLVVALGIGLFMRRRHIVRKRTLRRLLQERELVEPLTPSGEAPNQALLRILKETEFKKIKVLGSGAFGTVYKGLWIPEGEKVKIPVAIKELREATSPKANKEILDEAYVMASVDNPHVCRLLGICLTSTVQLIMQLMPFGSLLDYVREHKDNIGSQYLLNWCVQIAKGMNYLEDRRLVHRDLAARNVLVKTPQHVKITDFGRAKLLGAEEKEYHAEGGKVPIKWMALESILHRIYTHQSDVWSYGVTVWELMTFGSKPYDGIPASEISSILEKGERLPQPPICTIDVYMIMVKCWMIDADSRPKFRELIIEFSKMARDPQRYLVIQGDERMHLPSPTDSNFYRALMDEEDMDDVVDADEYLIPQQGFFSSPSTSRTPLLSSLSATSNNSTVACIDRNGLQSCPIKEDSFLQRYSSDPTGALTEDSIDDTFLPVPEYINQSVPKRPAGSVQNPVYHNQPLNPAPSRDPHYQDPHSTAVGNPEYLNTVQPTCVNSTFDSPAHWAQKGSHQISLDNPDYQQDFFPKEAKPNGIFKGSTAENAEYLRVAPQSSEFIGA

| SMILES | DC50 [nM] |
| --- | --- |
| CO[C@H]1CCN(c2nccc(Nc3cc4c(cn3)c(C(=O)NC3CCN(CCCCCCNc5cccc6c5C(=O)N(C5CCC(=O)NC5=O)C6=O)CC3)cn4C(C)C)n2)C[C@H]1F (mixture of isomers) [Example 7, N-[1-[6-[[2-[(3RS)-2,6-Dioxo-3-piperidyl]-1,3-dioxo-isoindolin-4-yl]amino]hexyl]-4-piperidyl]-6-[[2-[(3R,4S)-3-fluoro-4-methoxy-1-piperidyl]pyrimidin-4-yl]amino]-1-isopropyl-pyrrolo[3,2-c]pyridine-3-carboxamide] | 70 |
| CO[C@H]1CCN(c2nccc(Nc3cc4c(cn3)c(C(=O)NC3CCN(CCCCCCNc5cccc6c5C(=O)N(C5CCC(=O)NC5=O)C6=O)CC3)cn4C3CCCC3)n2)C[C@H]1F (mixture of isomers) [Example 10, 1-Cyclopentyl-N-[1-[6-[[2-[(3RS)-2,6-dioxo-3-piperidyl]-1,3-dioxo-isoindolin-4-yl]amino]hexyl]-4-piperidyl]-6-[[2-[(3R,4S)-3-fluoro-4-methoxy-1-piperidyl]pyrimidin-4-yl]amino]pyrrolo[3,2-c]pyridine-3-carboxamide] | 85 |
| CO[C@H]1CCN(c2nccc(Nc3cc4c(cn3)c(C(=O)NC3CCN(C(=O)N5CCN(CCCCNc6cccc7c6C(=O)N(C6CCC(=O)NC6=O)C7=O)CC5)CC3)cn4C3CCCC3)n2)C[C@H]1F (mixture of isomers) [Example 13, 1-Cyclopentyl-N-[1-[4-[4-[[2-[(3RS)-2,6-dioxo-3-piperidyl]-1,3-dioxo-isoindolin-4-yl]amino]butyl]piperazine-1-carbonyl]-4-piperidyl]-6-[[2-[(3R,4S)-3-fluoro-4-methoxy-1-piperidyl]pyrimidin-4-yl]amino]pyrrolo[3,2-c]pyridine-3-carboxamide] | 30 |
| CO[C@H]1CCN(c2nccc(Nc3cc4c(cn3)c(C(=O)NC3CCN(CCCOC5CCN(c6cccc7c6C(=O)N(C6CCC(=O)NC6=O)C7=O)CC5)CC3)cn4C(C)C)n2)C[C@H]1F (mixture of isomers) [Example 17, N-[1-[3-[[1-[2-[(3RS)-2,6-Dioxo-3-piperidyl]-1,3-dioxo-isoindolin-4-yl]-4-piperidyl]oxy]propyl]-4-piperidyl]-6-[[2-[(3R,4S)-3-fluoro-4-methoxy-1-piperidyl]pyrimidin-4-yl]amino]-1-isopropyl-pyrrolo[3,2-c]pyridine-3-carboxamide] | 74 |
| CO[C@@H]1CCN(c2nccc(Nc3cc4c(cn3)c(C(=O)NC3CCN(CCCCCCNc5cccc6c5C(=O)N(C5CCC(=O)NC5=O)C6=O)CC3)nn4C(C)C)n2)C[C@@H]1F (mixture of isomers) [Example 21, N-[1-[6-[[2-[(3RS)-2,6-Dioxo-3-piperidyl]-1,3-dioxo-isoindolin-4-yl]amino]hexyl]-4-piperidyl]-6-[[2-[(3S,4R)-3-fluoro-4-methoxy-1-piperidyl]pyrimidin-4-yl]amino]-1-isopropyl-pyrazolo[4,3-c]pyridine-3-carboxamide] | 2 |

The next lines start with the values.

| DC50 [nM] | SMILES |
| --- | --- |
| 46 | CO[C@@H]1CCN(c2nccc(Nc3cc4c(cn3)c(C(=O)NC3CCN(CCCCCCNc5cccc6c5C(=O)N(C5CCC(=O)NC5=O)C6=O)CC3)cn4C(C)C)n2)C[C@@H]1F (mixture of isomers) [Example 8, N-[1-[6-[[2-[(3RS)-2,6-Dioxo-3-piperidyl]-1,3-dioxo-isoindolin-4-yl]amino]hexyl]-4-piperidyl]-6-[[2-[(3S,4R)-3-fluoro-4-methoxy-1-piperidyl]pyrimidin-4-yl]amino]-1-isopropyl-pyrrolo[3,2-c]pyridine-3-carboxamide] |
| 26 | CO[C@H]1CCN(c2nccc(Nc3cc4c(cn3)c(C(=O)NC3CCN(CCCCCNc5cccc6c5C(=O)N(C5CCC(=O)NC5=O)C6=O)CC3)cn4C(C)C)n2)C[C@H]1F (mixture of isomers) [Example 9, N-[1-[5-[[2-[(3RS)-2,6-Dioxo-3-piperidyl]-1,3-dioxo-isoindolin-4-yl]amino]pentyl]-4-piperidyl]-6-[[2-[(3R,4S)-3-fluoro-4-methoxy-1-piperidyl]pyrimidin-4-yl]amino]-1-isopropyl-pyrrolo[3,2-c]pyridine-3-carboxamide] |
| 43 | CO[C@H]1CCN(c2nccc(Nc3cc4c(cn3)c(C(=O)NC3CCN(CCCCCNc5cccc6c5C(=O)N(C5CCC(=O)NC5=O)C6=O)CC3)cn4C3CCCC3)n2)C[C@H]1F (mixture of isomers) [Example 11, 1-Cyclopentyl-N-[1-[5-[[2-[(3RS)-2,6-dioxo-3-piperidyl]-1,3-dioxo-isoindolin-4-yl]amino]pentyl]-4-piperidyl]-6-[[2-[(3R,4S)-3-fluoro-4-methoxy-1-piperidyl]pyrimidin-4-yl]amino]pyrrolo[3,2-c]pyridine-3-carboxamide] |
| 41 | CO[C@H]1CCN(c2nccc(Nc3cc4c(cn3)c(C(=O)NC3CCN(CCCCNc5cccc6c5C(=O)N(C5CCC(=O)NC5=O)C6=O)CC3)cn4C(C)C)n2)C[C@H]1F (mixture of isomers) [Example 14, N-[1-[4-[[2-[(3RS)-2,6-Dioxo-3-piperidyl]-1,3-dioxo-isoindolin-4-yl]amino]butyl]-4-piperidyl]-6-[[2-[(3R,4S)-3-fluoro-4-methoxy-1-piperidyl]pyrimidin-4-yl]amino]-1-isopropyl-pyrrolo[3,2-c]pyridine-3-carboxamide] |
| 49 | CO[C@H]1CCN(c2nccc(Nc3cc4c(cn3)c(C(=O)NC3CCN(CCC5CCN(c6ccc7c(c6)C(=O)N(C6CCC(=O)NC6=O)C7=O)CC5)CC3)cn4C3CCCC3)n2)C[C@H]1F (mixture of isomers) [Example 15, 1-Cyclopentyl-N-[1-[2-[1-[2-[(3RS)-2,6-dioxo-3-piperidyl]-1,3-dioxo-isoindolin-5-yl]-4-piperidyl]ethyl]-4-piperidyl]-6-[[2-[(3R,4S)-3-fluoro-4-methoxy-1-piperidyl]pyrimidin-4-yl]amino]pyrrolo[3,2-c]pyridine-3-carboxamide] |
| 28 | CO[C@H]1CCN(c2nccc(Nc3cc4c(cn3)c(C(=O)NC3CCN(CCC5CCN(c6ccc7c(c6)C(=O)N(C6CCC(=O)NC6=O)C7=O)CC5)CC3)cn4C(C)C)n2)C[C@H]1F (mixture of isomers) [Example 16, N-[1-[2-[1-[2-[(3RS)-2,6-Dioxo-3-piperidyl]-1,3-dioxo-isoindolin-5-yl]-4-piperidyl]ethyl]-4-piperidyl]-6-[[2-[(3R,4S)-3-fluoro-4-methoxy-1-piperidyl]pyrimidin-4-yl]amino]-1-isopropyl-pyrrolo[3,2-c]pyridine-3-carboxamide] |
| 8 | CO[C@H]1CCN(c2nccc(Nc3cc4c(cn3)c(C(=O)NC3CCN(CCC5CN(c6cccc7c6C(=O)N(C6CCC(=O)NC6=O)C7=O)C5)CC3)cn4C(C)C)n2)C[C@H]1F (mixture of isomers) [Example 23, N-[1-[2-[1-[2-[(3RS)-2,6-Dioxo-3-piperidyl]-1,3-dioxo-isoindolin-4-yl]azetidin-3-yl]ethyl]-4-piperidyl]-6-[[2-[(3R,4S)-3-fluoro-4-methoxy-1-piperidyl]pyrimidin-4-yl]amino]-1-isopropyl-pyrrolo[3,2-c]pyridine-3-carboxamide] |

Source: patent publication US20200308171A1, “BIFUNCTIONAL INHIBITORS WITH EGFR HAVING A E3 UBIQUITIN LIGASE MOIETY” (Hoffmann-La Roche Inc., priority 2017, published 2020)
